pEC50: −log10 of the molar value. Activity calls are given as the source filed them. The calls are words filed in the database; no cut-off is given here. Non-standard residues stand in square brackets, D forms with d. Residues, ends and D or L forms follow the SMILES beside them. ξ: configuration not given here. ξNle = CCCCC(N)C(=O)O
Key:
[1] = Systemic clearance in Sprague-Dawley rat at 0.2 mg/kg, iv through cassette dosing measured up to 300 mins by LC/MS/MS analysis; format: ADME, organism-based; conditions: in vivo
[2] = molecular target: Glucagon receptor (Homo sapiens) (UniProt P47871); assay: Agonist activity at human GCGR expressed in HEK293 cells up to 1000 nM after 5 hrs by luciferase reporter gene assay; format: cell-based
[3] = molecular target: T1, Glucagon-like peptide 2 receptor (Homo sapiens, UniProt O95838); assay: Agonist activity at human GLP2R expressed in HEK293 cells after 5 hrs by luciferase reporter gene assay; format: cell-based
T1 sequence (O95838 whole entry): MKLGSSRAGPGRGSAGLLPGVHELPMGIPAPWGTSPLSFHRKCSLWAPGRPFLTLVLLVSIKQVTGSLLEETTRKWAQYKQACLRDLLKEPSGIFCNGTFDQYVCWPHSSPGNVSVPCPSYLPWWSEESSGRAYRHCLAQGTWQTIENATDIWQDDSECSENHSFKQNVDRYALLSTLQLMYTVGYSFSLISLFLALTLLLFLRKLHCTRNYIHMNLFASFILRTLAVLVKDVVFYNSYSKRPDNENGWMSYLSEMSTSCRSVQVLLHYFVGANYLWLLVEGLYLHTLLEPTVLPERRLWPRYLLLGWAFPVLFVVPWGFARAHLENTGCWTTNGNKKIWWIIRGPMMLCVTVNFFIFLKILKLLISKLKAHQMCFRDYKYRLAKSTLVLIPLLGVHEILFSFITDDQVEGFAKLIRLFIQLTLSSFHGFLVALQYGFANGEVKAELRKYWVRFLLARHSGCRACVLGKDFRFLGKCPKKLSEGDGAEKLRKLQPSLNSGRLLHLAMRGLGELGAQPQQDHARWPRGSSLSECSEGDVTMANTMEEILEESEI

[4] = molecular target: T2, Glucagon-like peptide 1 receptor (Homo sapiens, UniProt P43220); assay: Agonist activity at human GLP1R expressed in HEK293 cells after 5 hrs by luciferase reporter gene assay; format: cell-based
HEK293 = assay: Selectivity ratio of EC50 for human GLP1R expressed in HEK293 cells to EC50 for human GLP2R expressed in HEK293; format: cell-based
[5] = molecular target: T2, Glucagon-like peptide 1 receptor; assay: Agonist activity at human GLP1R expressed in HEK293 cells at 30 nM after 5 hrs by luciferase reporter gene assay; format: cell-based
[6] = molecular target: Glucagon receptor (Homo sapiens) (UniProt P47871); assay: Agonist activity at human GCGR expressed in HEK293 cells after 5 hrs by luciferase reporter gene assay; format: cell-based

Sequence of Glucagon receptor (Homo sapiens) (P47871 whole entry): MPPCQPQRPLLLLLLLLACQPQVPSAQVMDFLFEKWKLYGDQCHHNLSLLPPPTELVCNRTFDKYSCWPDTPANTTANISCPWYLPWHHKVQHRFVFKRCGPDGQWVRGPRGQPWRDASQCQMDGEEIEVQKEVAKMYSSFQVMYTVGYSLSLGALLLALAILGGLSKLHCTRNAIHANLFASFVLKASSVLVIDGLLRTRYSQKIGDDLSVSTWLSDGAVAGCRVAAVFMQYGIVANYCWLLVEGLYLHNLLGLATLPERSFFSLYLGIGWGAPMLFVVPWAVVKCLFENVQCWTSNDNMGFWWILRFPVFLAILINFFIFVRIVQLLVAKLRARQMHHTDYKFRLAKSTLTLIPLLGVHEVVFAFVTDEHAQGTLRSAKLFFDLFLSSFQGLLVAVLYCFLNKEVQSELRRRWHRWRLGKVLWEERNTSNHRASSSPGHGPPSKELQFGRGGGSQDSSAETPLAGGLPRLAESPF
T2 sequence (P43220 whole entry): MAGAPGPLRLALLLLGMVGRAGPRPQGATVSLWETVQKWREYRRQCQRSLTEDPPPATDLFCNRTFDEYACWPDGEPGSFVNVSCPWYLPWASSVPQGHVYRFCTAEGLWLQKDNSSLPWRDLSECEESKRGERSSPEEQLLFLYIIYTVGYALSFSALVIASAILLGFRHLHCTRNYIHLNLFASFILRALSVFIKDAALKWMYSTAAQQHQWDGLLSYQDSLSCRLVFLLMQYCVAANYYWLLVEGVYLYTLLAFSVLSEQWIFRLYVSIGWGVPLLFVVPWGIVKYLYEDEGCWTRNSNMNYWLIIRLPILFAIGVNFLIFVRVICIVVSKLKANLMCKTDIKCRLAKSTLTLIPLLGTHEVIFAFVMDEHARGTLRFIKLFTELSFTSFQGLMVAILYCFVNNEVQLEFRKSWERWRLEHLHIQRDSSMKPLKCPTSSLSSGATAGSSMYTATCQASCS

clearance [1] [mL/min/kg]	Activity [2]	pEC50 [3]	pEC50 [4]	Efficacy [5] [%]	Activity [6]	Structure (SMILES)	Ratio EC50 (HEK293)
0.13	inactive	9.38	< 6.00			CCCCC(NC(=O)[C@H](CCC(=O)O)NC(=O)[C@H](CC(=O)O)NC(=O)[C@H](CO)NC(=O)[C@H](Cc1ccccc1)NC(=O)[C@H](CO)NC(=O)CNC(=O)[C@H](CC(=O)O)NC(=O)CNC(=O)[C@@H](N)Cc1cnc[nH]1)C(=O)N[C@@H](CC(N)=O)C(=O)N[C@H](C(=O)N[C@H](C(=O)N[C@@H](CC(C)C)C(=O)N[C@@H](CC(=O)O)C(=O)N[C@@H](Cc1cnc[nH]1)C(=O)N[C@@H](CC(C)C)C(=O)N[C@@H](C)C(=O)N[C@@H](C)C(=O)N[C@@H](CCCNC(=N)N)C(=O)N[C@@H](CC(=O)O)C(=O)N[C@@H](Cc1ccccc1)C(=O)N[C@H](C(=O)N[C@@H](CC(N)=O)C(=O)N[C@@H](Cc1c[nH]c2ccccc12)C(=O)N[C@@H](CC(C)C)C(=O)N[C@H](C(=O)N[C@@H](CCC(N)=O)C(=O)N[C@H](C(=O)N[C@@H](CCCCN)C(N)=O)[C@@H](C)O)[C@@H](C)CC)[C@@H](C)CC)[C@@H](C)CC)[C@@H](C)O (stereo partly drawn) (H-HGDGSFSDE[ξNle]NTILDHLAARDFINWLIQTK-NH2)	> 2300
	inactive					CCCCC(NC(=O)[C@H](CCC(=O)O)NC(=O)[C@H](CC(=O)O)NC(=O)[C@H](CO)NC(=O)[C@H](Cc1ccccc1)NC(=O)[C@H](CO)NC(=O)CNC(=O)[C@H](CC(=O)O)NC(=O)CNC(=O)[C@H](N)Cc1cnc[nH]1)C(=O)N[C@@H](CC(N)=O)C(=O)N[C@H](C(=O)N[C@H](C(=O)N[C@@H](CC(C)C)C(=O)N[C@@H](CC(=O)O)C(=O)NC(Cc1ccc(-c2ccccc2)cc1)C(=O)N[C@H](CC(C)C)C(=O)N[C@H](C)C(=O)N[C@H](C)C(=O)N[C@H](CCCNC(=N)N)C(=O)N[C@H](CC(=O)O)C(=O)N[C@H](Cc1ccccc1)C(=O)N[C@@H](C(=O)N[C@H](CC(N)=O)C(=O)N[C@@H](Cc1c[nH]c2ccccc12)C(=O)N[C@@H](CC(C)C)C(=O)N[C@H](C(=O)N[C@@H](CCC(N)=O)C(=O)N[C@H](C(=O)N[C@H](CCCCN)C(N)=O)[C@@H](C)O)[C@H](C)CC)[C@@H](C)CC)[C@H](C)CC)[C@@H](C)O (stereo partly drawn)	> 2800
	inactive					CCCCC(NC(=O)[C@H](CCC(=O)O)NC(=O)[C@H](CC(=O)O)NC(=O)[C@H](CO)NC(=O)[C@H](Cc1ccccc1)NC(=O)[C@H](CO)NC(=O)CNC(=O)[C@H](CC(=O)O)NC(=O)CNC(=O)[C@H](N)Cc1cnc[nH]1)C(=O)N[C@@H](CC(N)=O)C(=O)N[C@H](C(=O)N[C@H](C(=O)N[C@@H](CC(C)C)C(=O)N[C@@H](CC(=O)O)C(=O)NC(Cc1ccc(N)cc1)C(=O)N[C@H](CC(C)C)C(=O)N[C@H](C)C(=O)N[C@H](C)C(=O)N[C@H](CCCNC(=N)N)C(=O)N[C@H](CC(=O)O)C(=O)N[C@H](Cc1ccccc1)C(=O)N[C@@H](C(=O)N[C@H](CC(N)=O)C(=O)N[C@@H](Cc1c[nH]c2ccccc12)C(=O)N[C@@H](CC(C)C)C(=O)N[C@H](C(=O)N[C@@H](CCC(N)=O)C(=O)N[C@H](C(=O)N[C@H](CCCCN)C(N)=O)[C@@H](C)O)[C@H](C)CC)[C@@H](C)CC)[C@H](C)CC)[C@@H](C)O (stereo partly drawn)	> 7600
	inactive					CCCCC(NC(=O)[C@H](CCC(=O)O)NC(=O)[C@H](CC(=O)O)NC(=O)[C@H](CO)NC(=O)[C@H](Cc1ccccc1)NC(=O)[C@H](CO)NC(=O)CNC(=O)[C@H](CC(=O)O)NC(=O)CNC(=O)[C@H](N)Cc1cnc[nH]1)C(=O)N[C@@H](CC(N)=O)C(=O)N[C@H](C(=O)N[C@H](C(=O)N[C@@H](CC(C)C)C(=O)N[C@@H](CC(=O)O)C(=O)NC(CC1CCCCC1)C(=O)N[C@H](CC(C)C)C(=O)N[C@H](C)C(=O)N[C@H](C)C(=O)N[C@H](CCCNC(=N)N)C(=O)N[C@H](CC(=O)O)C(=O)N[C@H](Cc1ccccc1)C(=O)N[C@@H](C(=O)N[C@H](CC(N)=O)C(=O)N[C@@H](Cc1c[nH]c2ccccc12)C(=O)N[C@@H](CC(C)C)C(=O)N[C@H](C(=O)N[C@@H](CCC(N)=O)C(=O)N[C@H](C(=O)N[C@H](CCCCN)C(N)=O)[C@@H](C)O)[C@H](C)CC)[C@@H](C)CC)[C@H](C)CC)[C@@H](C)O (stereo partly drawn)	> 10000
	inactive					CCCCC(NC(=O)[C@@H](CCC(=O)O)NC(=O)[C@@H](CC(=O)O)NC(=O)[C@@H](CO)NC(=O)[C@@H](Cc1ccccc1)NC(=O)[C@@H](CO)NC(=O)CNC(=O)[C@@H](CC(=O)O)NC(=O)CNC(=O)[C@@H](N)Cc1cnc[nH]1)C(=O)N[C@H](CC(N)=O)C(=O)N[C@@H](C(=O)N[C@@H](C(=O)N[C@H](CC(C)C)C(=O)N[C@H](CC(=O)O)C(=O)NC(Cc1cccc2ccccc12)C(=O)N[C@@H](CC(C)C)C(=O)N[C@@H](C)C(=O)N[C@@H](C)C(=O)N[C@@H](CCCNC(=N)N)C(=O)N[C@@H](CC(=O)O)C(=O)N[C@@H](Cc1ccccc1)C(=O)N[C@H](C(=O)N[C@@H](CC(N)=O)C(=O)N[C@H](Cc1c[nH]c2ccccc12)C(=O)N[C@H](CC(C)C)C(=O)N[C@@H](C(=O)N[C@H](CCC(N)=O)C(=O)N[C@@H](C(=O)N[C@@H](CCCCN)C(N)=O)[C@H](C)O)[C@@H](C)CC)[C@H](C)CC)[C@@H](C)CC)[C@H](C)O (stereo partly drawn)	> 5200
	inactive					CCCCC(NC(=O)[C@H](CCC(=O)O)NC(=O)[C@H](CC(=O)O)NC(=O)[C@H](CO)NC(=O)[C@H](Cc1ccccc1)NC(=O)[C@H](CO)NC(=O)CNC(=O)[C@H](CC(=O)O)NC(=O)CNC(=O)[C@H](N)Cc1cnc[nH]1)C(=O)N[C@@H](CC(N)=O)C(=O)N[C@H](C(=O)N[C@H](C(=O)N[C@@H](CC(C)C)C(=O)N[C@@H](CC(=O)O)C(=O)NC(Cc1ccc(Cl)cc1)C(=O)N[C@H](CC(C)C)C(=O)N[C@H](C)C(=O)N[C@H](C)C(=O)N[C@H](CCCNC(=N)N)C(=O)N[C@H](CC(=O)O)C(=O)N[C@H](Cc1ccccc1)C(=O)N[C@@H](C(=O)N[C@H](CC(N)=O)C(=O)N[C@@H](Cc1c[nH]c2ccccc12)C(=O)N[C@@H](CC(C)C)C(=O)N[C@H](C(=O)N[C@@H](CCC(N)=O)C(=O)N[C@H](C(=O)N[C@H](CCCCN)C(N)=O)[C@@H](C)O)[C@H](C)CC)[C@@H](C)CC)[C@H](C)CC)[C@@H](C)O (stereo partly drawn)	> 4500
	inactive					CCCCC(NC(=O)[C@@H](CCC(=O)O)NC(=O)[C@@H](CC(=O)O)NC(=O)[C@@H](CO)NC(=O)[C@@H](Cc1ccccc1)NC(=O)[C@@H](CO)NC(=O)CNC(=O)[C@@H](CC(=O)O)NC(=O)CNC(=O)[C@@H](N)Cc1cnc[nH]1)C(=O)N[C@H](CC(N)=O)C(=O)N[C@@H](C(=O)N[C@@H](C(=O)N[C@H](CC(C)C)C(=O)N[C@H](CC(=O)O)C(=O)NC(Cc1ccc2ccccc2c1)C(=O)N[C@@H](CC(C)C)C(=O)N[C@@H](C)C(=O)N[C@@H](C)C(=O)N[C@@H](CCCNC(=N)N)C(=O)N[C@@H](CC(=O)O)C(=O)N[C@@H](Cc1ccccc1)C(=O)N[C@H](C(=O)N[C@@H](CC(N)=O)C(=O)N[C@H](Cc1c[nH]c2ccccc12)C(=O)N[C@H](CC(C)C)C(=O)N[C@@H](C(=O)N[C@H](CCC(N)=O)C(=O)N[C@@H](C(=O)N[C@@H](CCCCN)C(N)=O)[C@H](C)O)[C@@H](C)CC)[C@H](C)CC)[C@@H](C)CC)[C@H](C)O (stereo partly drawn)	> 7600
1.3		10.05	7.08	39	inactive	CCCCC(NC(=O)[C@H](CCC(=O)O)NC(=O)[C@H](CC(=O)O)NC(=O)[C@H](CO)NC(=O)[C@H](Cc1ccccc1)NC(=O)[C@H](CO)NC(=O)CNC(=O)[C@H](CC(=O)O)NC(=O)CNC(=O)[C@@H](N)Cc1cnc[nH]1)C(=O)N[C@H](Cc1ccsc1)C(=O)N[C@H](C(=O)N[C@H](C(=O)N[C@@H](CC(C)C)C(=O)N[C@@H](CC(=O)O)C(=O)N[C@@H](CC(N)=O)C(=O)N[C@@H](CC(C)C)C(=O)N[C@@H](C)C(=O)N[C@@H](C)C(=O)N[C@@H](CCCNC(=N)N)C(=O)N[C@@H](CC(=O)O)C(=O)N[C@@H](Cc1ccccc1)C(=O)N[C@H](C(=O)N[C@@H](CC(N)=O)C(=O)N[C@@H](Cc1c[nH]c2ccccc12)C(=O)N[C@@H](CC(C)C)C(=O)N[C@H](C(=O)N[C@@H](CCC(N)=O)C(=O)N[C@H](C(=O)N[C@@H](CCCCN)C(N)=O)[C@@H](C)O)[C@@H](C)CC)[C@@H](C)CC)[C@@H](C)CC)[C@@H](C)O (stereo partly drawn)	920

Reference: ChEMBL document CHEMBL3822442, “Synthesis and Pharmacological Characterization of Novel Glucagon-like Peptide-2 (GLP-2) Analogues with Low Systemic Clearance” (J Med Chem, 2016)
